Measured values reported in US7687453B2, “Method for administering insulin to the buccal region” (Generex Pharmaceuticals Incorporated, priority 1998, dated 2010).

Experiments:
blood glucose [1] = test: Blood glucose, oral mixed micellar insulin vs injection, fasted Type II diabetic volunteers (Example 8); format: in vivo, human; conditions: injection 10 units, avg of 10 fasted Type II diabetics
Description: In one set of tests, ten Type II diabetic human volunteers who took insulin, by injection three times a day, were studied. In another set of tests the volunteers were tested with insulin, faken orally. The volunteers fasted from midnight prior to the test, with no food being taken during the 4 hour study. On the first day, the volunteers received 10 units insulin by injection (regular fast acting insulin, available from Eli Lilly). On the second day, the volunteers received 30 units (1 mL volume per drop, approximately 20 drops) of the above-prepared oral insulin (3 times the injection dose). In both tests, blood glucose levels were monitored every 15 minutes by Bayer's Glucometer Elite.

blood glucose [2] = test: Blood glucose, nasal mixed micellar insulin vs injection (Example 10); format: in vivo, human; conditions: injection 10 units, avg of ten volunteers
Description: The formulation of Example 9 was tested in a manner similar to that indicated in Example 8 except that the formulation of the present invention was administered nasally.
On the first day, the ten volunteers each received 10 units insulin injection (regular fast acting, Eli Lilly). On the second day, the volunteers received 20 units of the “oral” insulin of Example 9 (2 times the injection dose). The “oral” insulin was administered as drops (0.4 mL volume per drop, approximately 4 large drops in total, i.e. two drops in each nostril).

## regular fast acting insulin: regular fast acting insulin, available from Eli Lilly, given by injection (10 units)
Blood glucose [1]; 0 min
  Blood glucose levels: 6.8 mmol/L
Blood glucose [1]; 15 min
  Blood glucose levels: 6.9 mmol/L
Blood glucose [1]; 30 min
  Blood glucose levels: 6.1 mmol/L
Blood glucose [1]; 45 min
  Blood glucose levels: 5.8 mmol/L
Blood glucose [1]; 60 min
  Blood glucose levels: 5.8 mmol/L
Blood glucose [1]; 75 min
  Blood glucose levels: 5.8 mmol/L
Blood glucose [1]; 90 min
  Blood glucose levels: 5.4 mmol/L
Blood glucose [1]; 105 min
  Blood glucose levels: 5.4 mmol/L
Blood glucose [1]; 120 min
  Blood glucose levels: 5.2 mmol/L
Blood glucose [1]; 135 min
  Blood glucose levels: 5.1 mmol/L
Blood glucose [1]; 150 min
  Blood glucose levels: 4.9 mmol/L
Blood glucose [1]; 165 min
  Blood glucose levels: 4.9 mmol/L
Blood glucose [1]; 180 min
  Blood glucose levels: 4.8 mmol/L
Blood glucose [1]; 195 min
  Blood glucose levels: 4.8 mmol/L
Blood glucose [1]; 210 min
  Blood glucose levels: 5.2 mmol/L
Blood glucose [1]; 225 min
  Blood glucose levels: 5.2 mmol/L
Blood glucose [1]; 240 min
  Blood glucose levels: 5.4 mmol/L
Blood glucose [2]; 0 min
  Blood glucose levels: 6.8 mmol/L
Blood glucose [2]; 15 min
  Blood glucose levels: 7.0 mmol/L
Blood glucose [2]; 30 min
  Blood glucose levels: 6.8 mmol/L
Blood glucose [2]; 45 min
  Blood glucose levels: 6.3 mmol/L
Blood glucose [2]; 60 min
  Blood glucose levels: 6.3 mmol/L
Blood glucose [2]; 75 min
  Blood glucose levels: 5.8 mmol/L
Blood glucose [2]; 90 min
  Blood glucose levels: 5.2 mmol/L
Blood glucose [2]; 105 min
  Blood glucose levels: 5.0 mmol/L
Blood glucose [2]; 120 min
  Blood glucose levels: 5.2 mmol/L
Blood glucose [2]; 135 min
  Blood glucose levels: 4.2 mmol/L
Blood glucose [2]; 150 min
  Blood glucose levels: 4.6 mmol/L
Blood glucose [2]; 165 min
  Blood glucose levels: 4.0 mmol/L
Blood glucose [2]; 180 min
  Blood glucose levels: 4.1 mmol/L
Blood glucose [2]; 195 min
  Blood glucose levels: 4.3 mmol/L
Blood glucose [2]; 210 min
  Blood glucose levels: 4.5 mmol/L
Blood glucose [2]; 225 min
  Blood glucose levels: 4.7 mmol/L
Blood glucose [2]; 240 min
  Blood glucose levels: 5.0 mmol/L
